PubChem BioAssay (NCI)
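Following 48 hours of exposure in 96-well plates, responses at five concentrations were used to interpolate endpoints linearly. Abbreviation: GI50, concentration required for 50% inhibition of growth. TGI marks complete inhibition of growth.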

Columns and labels:
Assay in all cases: NCI anticancer screen, dose series, 48 h
NCI/ADR-RES ovarian = test system: NCI/ADR-RES ovarian
K-562 leukemia = test system: K-562 leukemia
HCT-116 colon = test system: HCT-116 colon
UACC-257 melanoma = test system: UACC-257 melanoma
BT-549 breast = test system: BT-549 breast
SK-OV-3 ovarian = test system: SK-OV-3 ovarian
NCI-H522 lung = test system: NCI-H522 lung
SNB-19 CNS = test system: SNB-19 CNS
U251 CNS = test system: U251 CNS
SW-620 colon = test system: SW-620 colon

Compound	TGI (NCI/ADR-RES ovarian)	TGI (K-562 leukemia)	TGI (HCT-116 colon)	TGI (UACC-257 melanoma)	TGI (BT-549 breast)	TGI (SK-OV-3 ovarian)	TGI (NCI-H522 lung)	TGI (SNB-19 CNS)	TGI (U251 CNS)	TGI (SW-620 colon)	GI50 (NCI/ADR-RES ovarian)	GI50 (K-562 leukemia)	GI50 (HCT-116 colon)	GI50 (UACC-257 melanoma)	GI50 (SK-OV-3 ovarian)	GI50 (NCI-H522 lung)	GI50 (SNB-19 CNS)	GI50 (U251 CNS)	GI50 (SW-620 colon)	GI50 (BT-549 breast)
CCCc1nc(Cl)c(Cl)c(Cl)n1	> 100 µM	> 45.9 µM	26.8 µM	> 100 µM	77.9 µM	> 100 µM	30.5 µM	> 96.4 µM	30.1 µM	> 52.2 µM										
COc1ccc2c(O)c(/C=C3\N=Nc4ncccc43)oc2c1C[C@@H]1CCNC[C@H]1F	4.31 µM	1.79 µM	1.21 µM	9.46 µM	2.53 µM	7.71 µM	1.35 µM	7.59 µM	1.2 µM	1.12 µM	0.915 µM	0.442 µM	0.118 µM	2.82 µM	2.33 µM	0.128 µM	0.541 µM	0.299 µM	0.34 µM	
OC1CCCC2CCC[N-]C12.OC1CCCC2CCC[N-]C12.[O]=[V][OH] (centres undefined)	15.1 µM	14.4 µM	11.5 µM	> 100 µM	52.8 µM	55.9 µM	25.7 µM	> 100 µM	5.72 µM	37.5 µM	2.82 µM	1.93 µM	2.66 µM	4.05 µM	6.25 µM	0.743 µM	53.1 µM	1.87 µM	3.5 µM	6.3 µM
CCN(CC)CCN1c2nc3ccccc3cc2Sc2cc3ccccc3nc21	7.83 µM	> 100 µM	2.78 µM	4.06 µM	12.2 µM	12.9 µM	4.1 µM	11.9 µM	4.48 µM	2.99 µM	2.5 µM	3.04 µM	1.4 µM	2.04 µM	3.5 µM	1.65 µM	3.03 µM	1.95 µM	1.53 µM	2.83 µM
C#CC1(O)C(COP(=O)(O)OCC2OC(n3cc(F)c(=O)[nH]c3=O)CC2O)OC(n2ccc(N)nc2=O)C1O (centres undefined)	16 µM	> 100 µM	> 100 µM	> 23.1 µM	2.52 µM	> 100 µM	> 100 µM	> 100 µM	> 100 µM	> 100 µM	< 0.0115 µM	< 0.01 µM	< 0.01 µM	0.114 µM	> 100 µM	< 0.01 µM		< 0.0273 µM	< 0.01 µM	< 0.019 µM
Fc1ccc(-c2nn3ccccc3c2-c2ccncc2)cc1	> 25 µM	> 25 µM	> 25 µM	> 25 µM	> 25 µM	> 25 µM	> 25 µM	> 25 µM	> 25 µM	> 25 µM	> 25 µM	> 25 µM	> 25 µM	> 25 µM	> 25 µM	> 19.8 µM	> 25 µM	> 25 µM	> 25 µM	> 25 µM
Cn1c(=O)c(Oc2ccc(F)cc2F)cc2cnc(N[C@@H]3CCOC3)nc21	> 25 µM	> 25 µM	> 25 µM	> 25 µM	> 25 µM	> 25 µM	> 25 µM	> 25 µM	> 25 µM	> 25 µM	> 25 µM	> 25 µM	> 25 µM	> 25 µM	> 25 µM	> 25 µM	> 25 µM	> 25 µM	> 25 µM	> 25 µM
C#C[C@@]1(O)[C@@H](CO)O[C@@H](n2cc(C(F)(F)F)c3c(N)ncnc32)[C@@H]1O	> 24.7 µM	0.909 µM	> 100 µM		4.69 µM	> 100 µM	1.98 µM	> 100 µM		> 21.7 µM	0.487 µM	0.291 µM	0.363 µM	0.6 µM	0.214 µM	0.345 µM	1.53 µM	0.409 µM	0.349 µM	0.962 µM
N#Cc1nc(C#N)c(Sc2ccccc2)c(Sc2ccccc2)c1Sc1ccccc1	> 100 µM	> 29.9 µM		2.94 µM	4.27 µM	9.01 µM	0.645 µM	5.9 µM	1.86 µM	0.5 µM	0.504 µM	1.55 µM	0.301 µM	1.37 µM	3.27 µM	0.208 µM	2.5 µM	0.51 µM	0.232 µM	0.21 µM
O=C1Nc2ccccc2/C1=C\c1nc(-c2ccccc2F)n2ccccc12	13.3 µM	19.7 µM	4.04 µM	18.1 µM	12.9 µM	12.4 µM	7.37 µM	16.7 µM	6.1 µM	14.2 µM	3.36 µM	6.35 µM	1.97 µM	5.2 µM	3.46 µM	2.18 µM	4.7 µM	2.57 µM	3.97 µM	3.37 µM
CCC(=O)N1C/C(=C/c2ccc(Br)cc2)C(=O)/C(=C/c2ccc(Br)cc2)C1	32.8 µM	6.1 µM	0.311 µM	3.47 µM	1.39 µM	5.98 µM	2.8 µM	2.9 µM	0.763 µM	0.82 µM	1.36 µM	0.183 µM	< 0.0417 µM	1.63 µM	1.73 µM	1.4 µM	0.995 µM	0.24 µM	0.22 µM	0.653 µM
COc1ccc(C2C(C#N)=C(N)Oc3c2sc2c(Br)cccc32)cc1 (centres undefined)	4.26 µM	5.79 µM	12.3 µM	32.7 µM	25.3 µM	19.9 µM	6.28 µM	21.6 µM	12.4 µM	86.6 µM	0.767 µM	0.404 µM	1.93 µM	13.6 µM	4.68 µM	1.75 µM	4.04 µM	3.25 µM	1.87 µM	4.76 µM
Cc1ccc(-c2nc(-c3nccc4ccccc34)oc2-c2ccccc2)cc1	> 100 µM	> 100 µM	> 100 µM	> 100 µM	> 100 µM	> 100 µM	> 100 µM	> 100 µM	> 100 µM	> 100 µM										
Clc1ccc2c(c1)N(C1CCCN(Cc3ccccc3)C1)c1ccccc1S2 (centres undefined)	13.7 µM	> 100 µM	11.5 µM	> 100 µM	77 µM	> 100 µM	6.3 µM	> 100 µM	> 100 µM	32.5 µM	3.24 µM	3.19 µM	2.92 µM	18.3 µM	3.36 µM	2.13 µM	6.02 µM	4.31 µM	2.98 µM	7.39 µM
COc1ccc(C(=O)c2cc3c(N)c(C(=O)Nc4cccc(Br)c4C)sc3nc2C)cc1	> 100 µM	> 100 µM		> 100 µM	> 100 µM	> 100 µM	> 100 µM	> 100 µM	> 100 µM	> 100 µM	0.0402 µM	0.0375 µM	0.038 µM	> 100 µM	0.102 µM	0.0418 µM	0.0541 µM	0.0518 µM	0.046 µM	0.123 µM
O=C(Nc1ccccc1)OC1OC(COC(=O)c2ccccc2)C(OC(=O)c2ccccc2)C1OS(=O)(=O)c1ccc([N+](=O)[O-])cc1 (centres undefined)	> 100 µM	> 100 µM	> 100 µM	> 100 µM	> 100 µM	> 100 µM	> 100 µM	> 100 µM	> 100 µM	> 100 µM										
CC1=C(C(=O)Nc2ccc(F)c(Cl)c2)C(c2cccc(Oc3ccccc3)c2)NC(=S)N1 (centres undefined)	> 50 µM	31.6 µM	46.8 µM	33.5 µM	32.4 µM	43.3 µM	24.3 µM	> 50 µM	20.2 µM	44.2 µM	27.8 µM	10.7 µM	14.6 µM	13.5 µM	15.9 µM	8.57 µM	32.2 µM	9.64 µM	16.2 µM	14.1 µM
O=C(/C=C/c1ccccn1)c1ccc(OCc2nnc(-c3ccc(Cl)cc3)o2)cc1	41.3 µM	4.8 µM	1.62 µM	4.06 µM	3.46 µM	10.4 µM	3.94 µM	3.98 µM	3.05 µM	3.93 µM	3.67 µM	2 µM	0.45 µM	1.98 µM	3.82 µM	1.89 µM	1.86 µM	1.64 µM	1.91 µM	1.92 µM
COS(C)(=O)=O	> 2 µM	> 2 µM	> 2 µM	> 2 µM	> 2 µM	> 2 µM	> 2 µM	> 2 µM	> 2 µM	> 2 µM										
CCOc1ccc(C(C[N+](=O)[O-])Sc2ccccc2N)cc1 (centres undefined)	28.1 µM	11.9 µM	3.36 µM	16.7 µM	9.9 µM	27.2 µM	24.9 µM	21.2 µM	10.6 µM	4.45 µM	14.3 µM	2.97 µM	1.7 µM	4.6 µM	14.2 µM	11.8 µM	9.22 µM	2.96 µM	1.73 µM	2.6 µM
O=C1Cc2cc(CCn3cncn3)c(Cl)cc2N1	> 100 µM	> 100 µM	> 100 µM	> 100 µM	> 100 µM	> 100 µM	> 100 µM	> 100 µM	> 100 µM	> 100 µM	5.85 µM	7.68 µM	32 µM	7.14 µM	36.5 µM	5.29 µM	70.7 µM	14.5 µM	6.6 µM	8.72 µM
Clc1cccc(CNc2c3ccccc3nc3ccccc23)c1	4.97 µM	11.2 µM	3.41 µM	4.25 µM	7.19 µM	13.2 µM	4.89 µM	12.4 µM	4.56 µM	3.91 µM	1.8 µM	2.39 µM	1.35 µM	1.92 µM	3.12 µM	1.88 µM	2.89 µM	2 µM	1.47 µM	2.34 µM
